The results in this text go back to the METLIN SMRT retention time set (Domingo-Almenara et al. 2019).

The series is described as follows: gradient 5% acetonitrile 3 min, to 50% in 2 min, to 85% in 15 min, held 3 min, 100 µL/min. Particulars: column: Zorbax Extend-C18 2.1 x 50 mm; eluents: water / acetonitrile, 0.1% formic acid. In outline: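 Data were gathered over 3 months by HPLC coupled to a quadrupole time-of-flight mass spectrometer, operated in positive and negative ionization mode. Mixtures of ~100 pure standards ran on a Zorbax Extend-C18 column (2.1 × 50 mm, 1.8 μm) at 100 μL/min, with water and acetonitrile each containing 0.1% formic acid and dead and dwell volumes of 40 μL and 900 μL. Retention time was read from adduct peaks picked by computer and checked manually.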
With `Cc1c(C(=O)O)nnn1-c1ccc(F)c(Cl)c1`, the RP-LC retention time was 726 s. Next, `Cc1cc(C)c(CN2CCC(N3CCN(Cc4nc(C)no4)C3=O)C2)c(C)c1` (configuration not stated): 672 s; `Cc1nc(-n2cccc2)sc1C(=O)N1CC(c2nc(-c3cccc(Cl)c3)no2)C1`: 1110 s. Next, `CCc1nc(-c2csc(S(=O)(=O)N3CCCC(C(=O)NC4CCCCC4)C3)c2)no1` (configuration not stated): 1020 s; `CC(C)NC(=O)c1ccc2c(c1)CCN2C(=O)C1CCC1`: 764 s. As to `CCOc1ccc(CNC(=O)c2snc(C(=O)NCc3ccc(F)cc3)c2N)cc1`, the RP-LC retention time came to 1040 s.

Take `CCOCC(=O)N1CCOc2ccc(N(C)C)cc2C1`: the RP-LC retention time came to 566 s. With `COc1cc(OC)c(NC(=O)N2CCCC(C)(C(=O)NCc3ccc(C)cc3)C2)cc1Cl` (configuration not stated) the figure was 971 s; with `COc1cccc(CNC(=O)C2(C)CCCN(C(=O)Nc3cccc(Br)c3)C2)c1` (configuration not stated), 993 s; with `Cc1ccc(-c2nc3cnccn3c2NCCC(=O)N2CCC(N3CCCCC3)CC2)cc1`, 598 s.

In turn, `O=C(N[C@H]1C[C@@H]2C[C@H]1CN2C(=O)Nc1ccc(C(F)(F)F)cc1)c1cccs1` displayed an RP-LC retention time of 840 s. With `O=C(NCC1CC1)c1cn(-c2ccc(-c3nc(C4CC4)no3)cn2)cn1` the figure was 843 s; with `Cc1ccc(NC(=O)c2cn3c(n2)CCCC3)cc1`, 606 s; with `COC(=O)c1cc2n(n1)CC(C)(C(=O)NC1CCCCC1)N(c1cccc(F)c1)C2=O` (configuration not stated), 737 s. Next, `CCOc1cc(=O)c(C(=O)N2CCC(C(N)=O)CC2)nn1-c1ccc(OC)cc1`: 609 s. Next, `CC(C)n1nc(CNC(=O)c2ccc(Br)o2)c2ccccc21`: 926 s; `COc1cccc(Cc2nc(-c3cn(-c4ccc(F)cc4)nn3)no2)c1`: 994 s.

For `O=C(NCCn1ncccc1=O)c1ccc(N2CCCC2)nn1`, the RP-LC retention time was 522 s.

On to `CCCCOc1ccc(NC(=O)c2oc3cc(C)c(Cl)cc3c2C)c2cccnc12`, for which the RP-LC retention time came to 1030 s. With `Cc1ccc(-c2nnc(-c3nc(N4CCCCC4C)c4ccccc4n3)o2)cc1` (configuration not stated), the RP-LC retention time is 1260 s.

In turn, `O=C(c1ccc(OCC2CCCN2C(=O)CC2CCCCC2)cc1)N1CCOCC1` (configuration not stated) displayed an RP-LC retention time of 829 s. Next, `COc1ccc2cc(C(=O)Nc3ccccc3)[nH]c2c1`: 898 s; `O=C1NC(Cc2c[nH]c3ccccc23)C(=O)N1c1cccc(Cl)c1` (configuration not stated): 790 s; `O=C(Nc1ccccc1Cl)C(=O)c1c[nH]c2ccccc12`: 1130 s.

As to `CCOC(=O)c1[nH]c(C)c(C(=O)C(C)N(Cc2ccc(F)cc2)C(=O)C2CC2)c1C` (configuration not stated), the RP-LC retention time turned out to be 917 s.

As for `COc1cccc2cc(C(=O)Nc3ccc4c(c3)C(=O)Nc3ccccc3O4)oc12`, the RP-LC retention time amounted to 950 s. Next, `Cc1ccc(CNC(=O)Nc2ccc(-c3nc(-c4ccccc4)co3)cc2)cc1`: 1100 s. `CN(C)S(=O)(=O)c1ccc(-c2nnc(C(=O)NCC3CCCCC3)o2)cc1` returned an RP-LC retention time of 937 s. With `NC(=O)CSc1nccn1Cc1cccs1` the figure was 516 s; with `Cc1cc(OCC(=O)N[C@@H](CC(C)C)C(=O)O)c2c3c(c(=O)oc2c1)CCC3`, 822 s; with `CCn1c(C(=O)NCCc2c[nH]c3ccccc23)cc2cc(S(=O)(=O)N(C)C)ccc21`, 969 s. On to `Cc1ccc(C)c(C(=O)NCCc2cn(CC(C)C)c3ncccc23)c1`, for which the RP-LC retention time was 892 s. Regarding `Clc1cccc2sc(NCC3CCCO3)nc12` (configuration not stated), the RP-LC retention time stood at 811 s. Next, `Cc1c(CCN)ccc2c1[nH]c1ccccc12`: 697 s; `Cc1nnc(CNC(=O)C(=O)Nc2ccc(Cl)cn2)o1`: 628 s; `O=C(NCC1CCS(=O)(=O)C1)c1cccnc1` (configuration not stated): 565 s. With `CCCNC(=O)CCc1c(C)c(C(=O)OCC)c(C)n1C` the figure was 779 s. For `COCCN1C(=O)CCc2cc(NS(=O)(=O)c3ccccc3)ccc21`, the RP-LC retention time was determined as 716 s. With `COC(=O)c1cnn(-c2ccc(C(=O)NC3CCCC3)cc2)c1N` the figure was 716 s. For `CCCn1nc(CNC(=O)Cc2ccsc2)c2ccccc21`, the RP-LC retention time was found to be 847 s. Next, `Cn1nccc1-c1cccc(-c2noc(CNC(=O)c3ccccc3)n2)c1`: 798 s. For `Cc1cccc(Nc2nc(CC(=O)NCCOc3ccc(F)cc3)cs2)n1`, the RP-LC retention time came to 651 s. With `Cc1ccc(CNc2c(-c3cccc(Br)c3)nc3ncccn23)cc1`, the RP-LC retention time amounted to 927 s.

In the case of `Cc1ccc(CNC(=O)C2CCN(c3nccnc3Sc3ccccc3)CC2)o1`, the RP-LC retention time stood at 958 s. Next, `COc1cccc(Cn2nc3ccc(S(=O)(=O)N4CCOCC4)cn3c2=O)c1`: 783 s; `CC(C)Oc1ccccc1CN1C[C@@H](CO)[C@H](c2ccncc2)C1`: 569 s; `CCOc1ccc(-c2ccc(=O)n(CCNC(=O)c3cn(C)nc3OC)n2)cc1`: 645 s. Next, `Cc1ccc(Cn2nc3ccc(S(=O)(=O)N4CCCCCC4)cn3c2=O)cc1`: 1010 s; `Cc1cc(C(=O)NCCN2CCOCC2)c2cc(Br)ccc2n1`: 582 s; `O=C(Nc1ccc2c(c1)OCO2)c1noc2c1CCCCC2`: 967 s. In turn, `CCC(C)NC(=O)C1COC2(CCN(C(=O)c3ccc(F)cc3F)CC2)N1C(=O)c1ccccc1` (configuration not stated) came in with an RP-LC retention time of 744 s. Next, `Cc1cc(C(=O)NCC(C)C)n[nH]1`: 629 s. With `Cc1ccccc1-c1nc(C2CCN(S(=O)(=O)c3ccc4c(c3)CCCC4)CC2)no1` the figure was 1380 s; with `COCC(=O)N1CCC2(CCC2O)CC1` (configuration not stated), 577 s; with `O=C(NCc1ccc(Cl)cc1)C1CCN(c2ccc(SCc3ccccc3)nn2)CC1`, 824 s.

Regarding `O=C(Cc1cccs1)NCC1CCN(C(=O)Oc2ccccc2)CC1`, the RP-LC retention time came to 635 s.

Turning to `CCn1cnc2c1CN(S(=O)(=O)c1ccc(C#N)cc1)CC2`, the RP-LC retention time turned out to be 616 s. Next, `Cc1ccc(NC(=O)C2CCCN(c3cc(=O)n(C)c(=O)n3C)C2)nc1` (configuration not stated): 597 s; `CC(C)n1c(=O)sc2cc(S(=O)(=O)N3CCC(C(=O)NCc4ccccc4)CC3)ccc21`: 932 s. The compound `O=C(Cn1ccc2cc(S(=O)(=O)N3CCCCC3)ccc21)N1CCN(c2ccccn2)CC1` registered an RP-LC retention time of 660 s. With `Cn1cccc1C(=O)C(=O)N1CCN(c2ccc(F)cc2)CC1` the figure was 819 s; with `CC(Oc1cccc(Cl)c1)c1nc(-c2ccc3c(c2)ncn3CCC(=O)N2CCCC2)no1` (configuration not stated), 838 s.

Take `OC1CCC12CCN(Cc1cn[nH]c1-c1ccccc1)CC2` (configuration not stated): the RP-LC retention time came to 568 s.

`O=C1CCN(C(=O)[C@@H]2CCCN2C(=O)C2CCCCC2)CCCCCCN1` registered an RP-LC retention time of 743 s. Next, `Cc1ccc2c(c1)N(Cc1nc(-c3ccccc3Cl)no1)C(=O)CO2`: 1040 s. The compound `O=C(CNC(=O)c1ccc(=O)[nH]c1)Nc1ccc(-n2cnnn2)cc1` returned an RP-LC retention time of 544 s. Next, `COc1ccc(N2CCN(C(=O)C3CCCN(c4cc(=O)n(C)c(=O)n4C)C3)CC2)cc1` (configuration not stated): 696 s; `CCNC(=O)N1CCCN(S(=O)(=O)CC)CC1`: 582 s; `Cc1cc2c(cc1S(=O)(=O)N1CCC(C(=O)NCc3ccc(Cl)cc3)CC1)OCC(=O)N2`: 786 s.

For the compound `COc1ccc(-c2noc(-c3nn(-c4ccc(C)c(C)c4)ccc3=O)n2)cc1`, the RP-LC retention time was 923 s. Next, `COc1ccc(NC(=O)C2CCN(c3cncnc3N3CCCC3)CC2)cc1OC`: 616 s. With `O=C(N[C@H]1C[C@@H]2C[C@H]1N(C(=O)c1ccc3c(c1)OCO3)C2)c1ccccc1` the figure was 721 s; with `O=C(c1ccc2c(c1)OCO2)N1CCN(c2cc(-c3ccc(F)cc3)[nH]n2)CC1`, 772 s; with `COc1ccc(CNC(=O)c2nnc(-c3ccc(S(=O)(=O)N(C)C)cc3)o2)cc1OC`, 865 s.

Regarding `NC(=O)C1CCN(C(=O)CCn2ccn3nc(-c4ccccc4)cc3c2=O)CC1`, the RP-LC retention time came to 638 s. Next, `COc1ccc(Nc2c(C(=O)N3CCCC3)cnc3nc(C)ccc23)cc1OC`: 906 s; `CC(C)CCNCC(O)Cn1c2ccc(Br)cc2c2cc(Br)ccc21` (configuration not stated): 906 s. Next, `CCc1cccc(NC(=O)Cn2c(=O)nc(N3CCC(C)CC3)c3ccccc32)c1`: 898 s; `COCCNC(=O)CN1c2ccccc2NC2=C(C(=O)CC(C)(C)C2)C1c1cccs1` (configuration not stated): 727 s. With `COc1ccccc1OCC1c2ccsc2CCN1C(=O)CN(C(C)=O)C(C)C` (configuration not stated) the figure was 773 s.

Compound `Cc1ccc(C(=O)Nc2ccc(N3CCN(C4CCCC4)C3=O)nc2)cc1` registered an RP-LC retention time of 888 s. Take `O=C(NC1CC1)c1ccnc(N2CCNC(c3ccccc3)C2)c1` (configuration not stated): the RP-LC retention time is 583 s.
